BigSolDB 2.1

O=P(Oc1ccccc1)(Oc1ccccc1)Oc1ccc(OP(=O)(Oc2ccccc2)Oc2ccccc2)cc1
Conditions | solubility (mole fraction)
in acetone, 293.25 K | 0.0058
in acetone, 298.15 K | 0.00849
in acetone, 303.45 K | 0.0121
in acetone, 308.15 K | 0.0171
in acetone, 313.25 K | 0.0237
in acetone, 318.15 K | 0.0332
in acetone, 323.45 K | 0.0442
in acetonitrile, 293.25 K | 0.00142
in acetonitrile, 298.15 K | 0.00218
in acetonitrile, 303.25 K | 0.0034
in acetonitrile, 308.25 K | 0.00546
in acetonitrile, 313.25 K | 0.00807
in acetonitrile, 318.15 K | 0.0117
in acetonitrile, 323.25 K | 0.0173
in acetonitrile, 328.15 K | 0.0246
in acetonitrile, 333.25 K | 0.0357
in diethyl ether, 288.25 K | 0.00064
in diethyl ether, 293.25 K | 0.00081
in diethyl ether, 298.15 K | 0.00101
in diethyl ether, 303.25 K | 0.00127
in ethanol, 293.25 K | 0.00037
in ethanol, 298.15 K | 0.00062
in ethanol, 303.35 K | 0.00097
in ethanol, 308.25 K | 0.00156
in ethanol, 313.25 K | 0.00238
in ethanol, 318.25 K | 0.00356
in ethanol, 323.25 K | 0.00528
in ethanol, 328.15 K | 0.00807
in ethanol, 333.25 K | 0.0115
in ethyl acetate, 293.25 K | 0.00423
in ethyl acetate, 298.15 K | 0.00605
in ethyl acetate, 303.35 K | 0.00865
in ethyl acetate, 308.25 K | 0.0123
in ethyl acetate, 313.25 K | 0.0169
in ethyl acetate, 318.15 K | 0.0226
in ethyl acetate, 323.25 K | 0.0308
in ethyl acetate, 328.15 K | 0.0419
in ethyl acetate, 333.25 K | 0.0553
in isopropanol, 293.15 K | 0.00013
in isopropanol, 298.23 K | 0.00024
in isopropanol, 303.25 K | 0.00041
in isopropanol, 308.15 K | 0.00071
in isopropanol, 313.35 K | 0.00125
in isopropanol, 318.15 K | 0.00211
in isopropanol, 323.17 K | 0.00346
in isopropanol, 328.15 K | 0.00544
in isopropanol, 333.25 K | 0.00933
in methanol, 293.25 K | 0.00022
in methanol, 298.15 K | 0.0004
in methanol, 303.25 K | 0.00069
in methanol, 308.15 K | 0.00118
in methanol, 313.25 K | 0.00205
in methanol, 318.15 K | 0.0034
in methanol, 323.45 K | 0.00597
in methyl acetate, 293.25 K | 0.00522
in methyl acetate, 298.25 K | 0.00729
in methyl acetate, 303.25 K | 0.0106
in methyl acetate, 308.15 K | 0.0144
in methyl acetate, 313.15 K | 0.0203
in methyl acetate, 318.15 K | 0.0275
in methyl acetate, 323.45 K | 0.0369
in n-propanol, 293.15 K | 0.00025
in n-propanol, 298.17 K | 0.00046
in n-propanol, 303.25 K | 0.00078
in n-propanol, 308.15 K | 0.00127
in n-propanol, 313.24 K | 0.00215
in n-propanol, 318.18 K | 0.0035
in n-propanol, 323.25 K | 0.00558
in n-propanol, 328.15 K | 0.00884
in n-propanol, 333.24 K | 0.0136
in toluene, 293.15 K | 0.00378
in toluene, 298.25 K | 0.00543
in toluene, 303.35 K | 0.00795
in toluene, 308.15 K | 0.0114
in toluene, 313.25 K | 0.0154
in toluene, 318.18 K | 0.0219
in toluene, 323.25 K | 0.0303
in toluene, 328.16 K | 0.0402
in toluene, 333.25 K | 0.0556
